Reference: patent US20230094922A1, “METHODS OF THERAPEUTIC PROGNOSTICATION” (GENETIKAPLUS LTD., priority 2020, published 2023)

Test system: iPSC-derived cortical neurons
Test: RNA sequencing, differential gene expression: Bupropion-treated vs vehicle-only induced neurons (Tables 5, 6)
Format: cell-based, human
Experimental: iPSC differentiation into neurons-iPSCs were seeded at a density of 3×10^6 cells/well on a hESC-qualified Matrigel pre-coated 6-well plate and incubated at 37° C., 5% CO2 overnight. Differentiation was initiated the following day (day 0) after verifying that 100% confluency was reached. Differentiation media was added daily according to the following order: […]7 (day 15 onward) similar to a previously published protocol developed by for rapid differentiation to cortical neurons. The components of the described media, Q1-7, are provided in Appendix 1. Cells were assessed for differentiation efficiency and cell death on a daily basis. On day 9, differentiated neurons were re-plated on either 96-well plates (destined for staining) or 12-well plates (destined for RNA extraction) that were coated with 15 μg/mL Poly-ornithine diluted in PBS (overnight incubation at 37° C.), followed by 1 μg/mL Laminin and 2 μg/mL Fibronectin diluted in PBS (overnight incubation at 37° C.): Neurons were first rinsed with pre-warmed PBS and 1 ml/well of Accutase was added for 35 minutes at 37° C., 5% CO2. DNAse1 (0.5 mg/mL) was then added for 10 additional minutes. 3 ml of pre-warmed Neurobasal media was added to each well and neurons were gently collected using a 5 ml […]. Wells were then verified for the presence of any remaining neurons. Neurons were spun down and resuspended in Q6 media. Neurons were seeded at a density of 150,000 cells/cm^2 placed back at 37° C. Following four hours of incubation, media was changed to Q6 media (150 μl per 96-well and 1 ml per 12-well). […] RNA-sequencing samples were aligned to the GRCh38 reference genome using STAR aligner. TMM normalization of RNA read counts and differential gene expression analysis were carried out using edgeR. […] Cells were reprogrammed into iPSCs, following which iPSCs were differentiated into frontal cortical neuronal cells (see Materials and Methods). […] Another dose of drug or control was also administered at day 32. At day 35 neurons were either fixed for histological examination or isolated for RNA extraction.

[1] = 10 μM Bupropion vs vehicle, responder-derived neurons, day 35, PValue NS (not significant)
[2] = Bupropion vs vehicle only, p<0.05, over 60,000 genes probed

Which results are given for CC(NC(C)(C)C)C(=O)c1cccc(Cl)c1 (stereo not drawn) [Bupropion, 3-Chloro-N-tert-butyl-β-keto-α-methylphenethylamin]?
logFC NFKBID expression (10 μM Bupropion vs vehicle, responder-derived neurons, day 35, PValue 0.003685448): −0.6042; logFC TCF7 expression (10 μM Bupropion vs vehicle, responder-derived neurons, day 35, PValue 0.005666754): −0.3904; logFC DUSP23 expression (10 μM Bupropion vs vehicle, responder-derived neurons, day 35, PValue 0.006214757): −0.4927; logFC TENT5B expression (10 μM Bupropion vs vehicle, responder-derived neurons, day 35, PValue 0.008132328): −0.8021; logFC UGT3A2 expression (10 μM Bupropion vs vehicle, responder-derived neurons, day 35, PValue 0.009321582): −0.4889; logFC CCDC51 expression (10 μM Bupropion vs vehicle, responder-derived neurons, day 35, PValue 0.012079592): −0.2443; logFC CTNS expression (10 μM Bupropion vs vehicle, responder-derived neurons, day 35, PValue 0.013463621): −0.2404; logFC PYCARD expression (10 μM Bupropion vs vehicle, responder-derived neurons, day 35, PValue 0.013981248): −1.05; logFC ABHD4 expression (10 μM Bupropion vs vehicle, responder-derived neurons, day 35, PValue 0.014582448): −0.3111; logFC PTPRQ expression (10 μM Bupropion vs vehicle, responder-derived neurons, day 35, PValue 0.018081564): 0.89; logFC SMPDL3B expression (10 μM Bupropion vs vehicle, responder-derived neurons, day 35, PValue 0.022812161): −0.7488; logFC KLC3 expression (10 μM Bupropion vs vehicle, responder-derived neurons, day 35, PValue 0.023692875): −0.8533; logFC PNKP expression (10 μM Bupropion vs vehicle, responder-derived neurons, day 35, PValue 0.024437941): −0.2172; logFC SPNS1 expression (10 μM Bupropion vs vehicle, responder-derived neurons, day 35, PValue 0.024838304): −0.7022; logFC FAM117A expression (10 μM Bupropion vs vehicle, responder-derived neurons, day 35, PValue 0.025868873): −0.2485; logFC PPL expression (10 μM Bupropion vs vehicle, responder-derived neurons, day 35, PValue 0.026069274): −0.3932; logFC ZNF425 expression (10 μM Bupropion vs vehicle, responder-derived neurons, day 35, PValue 0.026180649): −0.2317; logFC MT2A expression (Table 6, downregulated) (10 μM Bupropion vs vehicle, responder-derived neurons, day 35, PValue 0.02632325): −0.7705; logFC COX16 expression (10 μM Bupropion vs vehicle, responder-derived neurons, day 35, PValue 0.026606667): 0.3985; logFC RSAD2 expression (10 μM Bupropion vs vehicle, responder-derived neurons, day 35, PValue 0.026606947): 0.9753; logFC PPP1R1B expression (10 μM Bupropion vs vehicle, responder-derived neurons, day 35, PValue 0.026677416): −0.677; logFC LLPH expression (10 μM Bupropion vs vehicle, responder-derived neurons, day 35, PValue 0.026874183): 0.1758; logFC CKS1B expression (10 μM Bupropion vs vehicle, responder-derived neurons, day 35, PValue 0.02807621): −0.3153; logFC LGR6 expression (10 μM Bupropion vs vehicle, responder-derived neurons, day 35, PValue 0.028853165): −0.6091; logFC TSTD2 expression (10 μM Bupropion vs vehicle, responder-derived neurons, day 35, PValue 0.028984217): 0.1932; logFC HS3ST5 expression (10 μM Bupropion vs vehicle, responder-derived neurons, day 35, PValue 0.028999172): 0.5251; logFC ART5 expression (10 μM Bupropion vs vehicle, responder-derived neurons, day 35, PValue 0.030155652): −0.5082; logFC ADRA2B expression (10 μM Bupropion vs vehicle, responder-derived neurons, day 35, PValue 0.031233579): −0.7451; logFC ZNF394 expression (10 μM Bupropion vs vehicle, responder-derived neurons, day 35, PValue 0.031885505): −0.1977; logFC CHMP4A expression (10 μM Bupropion vs vehicle, responder-derived neurons, day 35, PValue 0.031923817): 0.3939; logFC ETV5 expression (10 μM Bupropion vs vehicle, responder-derived neurons, day 35, PValue 0.031953602): −0.2432; logFC VWA2 expression (10 μM Bupropion vs vehicle, responder-derived neurons, day 35, PValue 0.033110679): −0.8249; logFC CDC42BPG expression (10 μM Bupropion vs vehicle, responder-derived neurons, day 35, PValue 0.034205433): −0.6386; logFC PSD3 expression (10 μM Bupropion vs vehicle, responder-derived neurons, day 35, PValue 0.034363174): 0.2947; logFC TRAF3IP2 expression (10 μM Bupropion vs vehicle, responder-derived neurons, day 35, PValue 0.035638975): −0.342; logFC TXNRD2 expression (10 μM Bupropion vs vehicle, responder-derived neurons, day 35, PValue 0.036129679): −0.3971; logFC RAB43 expression (10 μM Bupropion vs vehicle, responder-derived neurons, day 35, PValue 0.036339642): −0.7667; logFC APOE expression (10 μM Bupropion vs vehicle, responder-derived neurons, day 35, PValue 0.036466348): −0.4756; logFC TYW1B expression (10 μM Bupropion vs vehicle, responder-derived neurons, day 35, PValue 0.037441749): −0.2836; logFC ARL17B expression (10 μM Bupropion vs vehicle, responder-derived neurons, day 35, PValue 0.037774775): 0.4487; logFC TOM1 expression (10 μM Bupropion vs vehicle, responder-derived neurons, day 35, PValue 0.039328923): −0.2212; logFC FGF1 expression (10 μM Bupropion vs vehicle, responder-derived neurons, day 35, PValue 0.040753088): 0.7441; logFC GPR89A expression (10 μM Bupropion vs vehicle, responder-derived neurons, day 35, PValue 0.040776978): −0.3135; logFC HAUS8 expression (10 μM Bupropion vs vehicle, responder-derived neurons, day 35, PValue 0.040813288): −0.3377; logFC TNNI3 expression (10 μM Bupropion vs vehicle, responder-derived neurons, day 35, PValue 0.04085042): −0.4473; logFC INMT expression (10 μM Bupropion vs vehicle, responder-derived neurons, day 35, PValue 0.04107423): 0.8156; logFC LHFPL3 expression (10 μM Bupropion vs vehicle, responder-derived neurons, day 35, PValue 0.041076888): 0.8454; logFC TJP3 expression (10 μM Bupropion vs vehicle, responder-derived neurons, day 35, PValue 0.041258334): −0.4285; logFC RNASEK expression (10 μM Bupropion vs vehicle, responder-derived neurons, day 35, PValue 0.041364592): −0.4148; logFC MACROD1 expression (10 μM Bupropion vs vehicle, responder-derived neurons, day 35, PValue 0.041485982): −0.4078; logFC DDX55 expression (10 μM Bupropion vs vehicle, responder-derived neurons, day 35, PValue 0.041521555): −0.177; logFC MAP4K1 expression (10 μM Bupropion vs vehicle, responder-derived neurons, day 35, PValue 0.041777603): −0.4541; logFC MADCAM1 expression (10 μM Bupropion vs vehicle, responder-derived neurons, day 35, PValue 0.042721026): −0.6346; logFC NMRK2 expression (10 μM Bupropion vs vehicle, responder-derived neurons, day 35, PValue 0.042934722): −0.915; logFC RARRES2 expression (10 μM Bupropion vs vehicle, responder-derived neurons, day 35, PValue 0.044126316): −0.5614; logFC GABRD expression (10 μM Bupropion vs vehicle, responder-derived neurons, day 35, PValue 0.044432972): −0.661; logFC SCN9A expression (10 μM Bupropion vs vehicle, responder-derived neurons, day 35, PValue 0.044462789): 0.653; logFC CTSD expression (10 μM Bupropion vs vehicle, responder-derived neurons, day 35, PValue 0.044610728): −0.3042; logFC MINDY3 expression (10 μM Bupropion vs vehicle, responder-derived neurons, day 35, PValue 0.044932218): 0.1907; logFC FBXO2 expression (10 μM Bupropion vs vehicle, responder-derived neurons, day 35, PValue 0.044969345): −0.5297; logFC MT1X expression (10 μM Bupropion vs vehicle, responder-derived neurons, day 35, PValue 0.045842417): −0.6858; logFC LRRC2 expression (10 μM Bupropion vs vehicle, responder-derived neurons, day 35, PValue 0.045853063): −0.8234; logFC ZFP69B expression (10 μM Bupropion vs vehicle, responder-derived neurons, day 35, PValue 0.046824204): 0.2565; logFC SLC45A2 expression (10 μM Bupropion vs vehicle, responder-derived neurons, day 35, PValue 0.046871029): −1.05; logFC KLHL21 expression (10 μM Bupropion vs vehicle, responder-derived neurons, day 35, PValue 0.047318696): −0.2723; logFC RILPL1 expression (10 μM Bupropion vs vehicle, responder-derived neurons, day 35, PValue 0.047560251): −0.1692; logFC PSMB10 expression (10 μM Bupropion vs vehicle, responder-derived neurons, day 35, PValue 0.048107795): −0.5669; logFC LHPP expression (10 μM Bupropion vs vehicle, responder-derived neurons, day 35, PValue 0.048445403): −0.2669; logFC RABEP2 expression (10 μM Bupropion vs vehicle, responder-derived neurons, day 35, PValue 0.049224822): −0.2496; logFC LARGE2 expression (10 μM Bupropion vs vehicle, responder-derived neurons, day 35, PValue 0.049340025): −0.566; logFC ZNF221 expression (10 μM Bupropion vs vehicle, responder-derived neurons, day 35, PValue 0.049596306): 0.3254; logFC LIN37 expression (10 μM Bupropion vs vehicle, responder-derived neurons, day 35, PValue 3.06E−05): −0.8411; logFC APOL1 expression [1]: −0.7489; logFC ATP8B4 expression [1]: −0.6945; logFC CA3 expression [1]: 0.6571; logFC CDK6 expression [1]: 0.2579; logFC CORT expression [1]: 0.6431; logFC CXCL11 expression (Table 6, downregulated) [1]: −1.176; logFC ESR2 expression [1]: 0.4833; logFC GOLGA8H expression [1]: −0.565; logFC GRPR expression [1]: 0.6268; logFC MT1E expression [1]: 2.123; logFC MT2A expression (Table 5, upregulated) [1]: 1.378; logFC PITX2 expression [1]: 0.9302; logFC SEPTIN5 expression [1]: 0.5877; number of genes significantly downregulated in responders after treatment, but not in non-responders [2]: 57 genes; number of genes significantly upregulated in responders after treatment, but not in non-responders [2]: 18 genes
